Test results from patent publication US20120323022A1, “(2'S)-COLUMBIANETIN ISOLATED FROM CORYDALIS HETEROCARPA AND COMPOSITION CONTAINING THE SAME” (priority 2011, published 2012).

Columns and labels:
Format in all cases: cell-based, Human
MMP-9 (gelatinase B) = assay: RT-PCR and Western blot, MMP-9 expression in UVB-exposed cells; conditions: HaCaT, UVB 40 mJ/cm^2, RT-PCR and Western blot, FIG. 5
Experimental: (§1) Human keratinocyte (HaCaT, Korean Cell Line Bank, Seoul, Korea) cells were grown in Dulbecco's modified Eagle medium (DMEM, Gibco-BRL, Gaithersbrug, Md., USA) containing 10% fetal bovine serum (FBS), 2 mM glutamine and 100 μg/mL penicillin-streptomycin (Gibco-BRL, Gaithersbrug, Md., USA) at 37° C. humidified atmosphere of 5% CO2. Cells were sub-cultured to about 90-95% confluence by detaching with trypsin-EDTA solution.
(§2) Total cellular RNA was isolated using Trizol reagent (Invitrogen Co., CA, USA). The 2 μg of isolated RNA was reverse transcribed into cDNA using oligo-(dT) primer (Promega, Madison, Wis., USA). […] Finally, the relative band densities were determined using a LAS3000® Luminescent image analyzer (Fujifilm Life Science, Tokyo, Japan).
(§3) Whole cells were lysed in RIPA buffer (Sigma-Aldrich Corp., St. Louis, USA) at 4° C. for 30 min. After centrifugation, total protein amount of cell lysates were determined using Lowry method (BioRad Laboratories, Hercules, Calif.). […] Bound antibodies were detected by horseradish peroxidase-conjugated secondary antibodies for 1 h at room temperature and the immunoreactive proteins were detected using a chemiluminescent ECL assay kit (Amersham Pharmacia Biosciences, England, UK) according to the manufacturer's instructions. […]

TIMP-2 = assay: RT-PCR and Western blot, TIMP-2 expression in UVB-exposed cells; conditions: HaCaT, UVB 40 mJ/cm^2, FIG. 5
Experimental: as §1, §2, §3

[1] = test system: genomic DNA of keratinocyte cells; assay: Genomic DNA extraction and DNA oxidation, agarose gel; conditions: UVB-stimulated cells, FIG. 4
Experimental: as §1
Genomic DNA was isolated from keratinocyte cells using standard phenol/proteinase K procedure with slight modifications (J. Sambrook, D. W. Russell, Molecular Cloning: A Laboratory Manual; 3rd ed. Cold Spring Harbor Laboratory Press: Cold Spring Harbor. 2001). In brief, UVB-stimulated cells in the presence and absence of sample were washed twice with PBS and collected using 1 mL of PBS containing 10 mM EDTA. After centrifugation at 13,400×g for 5 min at 4° C., the deposited cells were resuspended in 410 μL of solution including RNase A (0.5 mg/mL), proteinase K (10 mg/mL), SDS (10%) and NaOAC (0.2 M). After that, this mixture was incubated at 37° C. for 30 min and 55° C. for 1 h. Following incubation, phenol:chloroform:iso-amylalcohol (25:24:1) was added at 1:1 ratio, after which the mixture was centrifuged at 13,400×g for 5 min at 4° C. […] Purity of DNA was determined by ratio of absorbance at 260 and 280 nm using spectrophotometric assay. […]

MMP-2 (gelatinase A) = assay: RT-PCR and Western blot, MMP-2 expression in UVB-exposed cells; conditions: HaCaT, UVB 40 mJ/cm^2, RT-PCR and Western blot, FIG. 5
Experimental: as §1, §2, §3

HaCaT cells [2] = assay: MTT assay, viability of UVB-exposed keratinocyte cells; conditions: UVB 40 mJ/cm^2, incubation 24 h, compared with only UVB-exposed cells, FIG. 2A
Experimental: as §1
The viability levels of keratinocyte cells were determined by the ability of mitochondria to convert 3-(4,5-dimethylthiazol-2-yl)-2,5-diphenyl tetrazolium bromide (MTT) to insoluble formazan product. Briefly, cells were grown in 96-well plates at a density of 1×10^4 cells/well. After incubation for 24 h, the cells were stimulated by UVB irradiation (40 mJ/cm^2) and incubated for 24 h in the absence or presence of (2′S)-columbianetin at 37° C. under a humidified atmosphere of 5% CO2. The supernatant medium was removed and 100 μL of 1 mg/mL MTT reagent was added to each well, followed by incubation for 4 h. After removal of unconverted MTT, the amount of formazan in the cells was determined by adding DMSO (dimethyl sulfoxide) to wells and measuring optical density (OD) at 540 nm using a microplate reader (Tacan Austria GmbH, Salzburg, Austria). Relative cell viability was calculated as the percentage of viability of untreated cells that were considered the control. […]

Bax = assay: Western blot, Bax in UVB-exposed cells; conditions: UVB-exposed HaCaT cells, FIG. 7B
Experimental: as §1, §3

[3] = test system: c-Jun N-terminal kinase (JNK); assay: Western blot, phosphorylated JNK in UVB-exposed cells; conditions: UVB-exposed HaCaT cells, FIG. 6
Experimental: as §1, §3

p53 = assay: Western blot, phosphorylated p53 in UVB-exposed cells; conditions: UVB-exposed HaCaT cells, FIG. 7B
Experimental: as §1, §3

c-fos = assay: Western blot, AP-1 activation (c-fos) in UVB-exposed cells; conditions: UVB-exposed HaCaT cells, FIG. 7A
Experimental: as §1, §3

HaCaT cells [4] = assay: LDH release assay, cell injury of UVB-exposed cells; conditions: UVB 40 mJ/cm^2, incubation 24 h, FIG. 2B
Experimental: as §1
Cell injury was measured by quantifying the amount of lactate dehydrogenase (LDH)-release using a commercial LDH cytotoxicity detection kit (TaKaRa Biomedicals, Tokyo, Japan). Cells were exposed according to the experiment design. The conditioned medium of the UVB-exposed cells was collected for LDH measurement. The substrate mix solution was added to aliquots of the supernatant medium at 1:1 ratio and incubated at 37° C. for 30 min under light protected conditions. Then, the absorbance was determined at 490 nm immediately after the addition of 1N HCl stop solution (final concentration, 0.2 N) using a microplate reader (Tacan Austria GmbH, Salzburg, Austria). Control was prepared with 0.1% (w/v) Triton X-100, which was defined as 100% LDH release.
(§4) Based on the above results, effects of (2′S)-columbianetin on the viability and injury degree of UVB-exposed keratinocyte cells were examined at incubation for 24 h after UVB exposure of 40 mJ/cm^2.

[5] = test system: extracellular signal-related kinase (ERK1/2); assay: Western blot, phosphorylated ERK1/2 in UVB-exposed cells; conditions: UVB-exposed HaCaT cells, FIG. 6
Experimental: as §1, §3

TIMP-1 = assay: RT-PCR and Western blot, TIMP-1 expression in UVB-exposed cells; conditions: HaCaT, UVB 40 mJ/cm^2, FIG. 5
Experimental: as §1, §2, §3

p38 MAPK = assay: Western blot, phosphorylated p38 MAPK in UVB-exposed cells; conditions: UVB-exposed HaCaT cells, FIG. 6
Experimental: as §1, §3

HaCaT cells [6] = assay: Microscopic image of morphological changes in UVB-exposed cells; conditions: UVB 40 mJ/cm^2, microscopic image, FIG. 2C
Experimental: as §1
To determine the appropriate energy level of UVB irradiation, the cytotoxicity of keratinocytes cultured from the above was determined by comparing the data obtained from MTT and LDH leakage for 6, 12, 24 and 48 h after UVB irradiation from 10 to 3000 mJ/cm^2. Exposure of cells to UVB energy induced significant decrease of cell viability (FIG. 1A) and increase of LDH release in a UVB exposure-dependent manner (FIG. 1B). Morphological changes in keratinocyte cells for different incubation periods (6, 12, 24 and 48 h) after UVB exposure of cells in a range of 10-3000 mJ/cm^2 were compared (FIG. 1C). A larger proportion of cells were swelling and dying in a dose- and time-dependent manner.
as §4

intracellular ROS = assay: Intracellular ROS generation (DCFH-DA) in UVB-exposed cells; conditions: UVB 40 mJ/cm^2, treated 24 h, FIG. 3
Experimental: as §1
The levels of intracellular ROS generation were detected using the oxidation sensitive dye 2′,7′-dichlorofluorescin diacetate (DCFH-DA). The cells were grown in a 96-well microplate with fluorescence for 24 h and followed by exposure to UVB (40 mJ/cm^2). The exposed cells were treated with (2′S)-columbianetin for 24 h and then they were loaded with 20 μM of DCFH-DA in PBS and incubated for 30 min in the dark at 37° C. under a humidified atmosphere with 5% CO2. Finally, cells were washed twice with PBS and the fluorescence of DCF in PBS was detected at an excitation wavelength of 485 nm and an emission wavelength of 535 nm using a fluorescence microplate reader (Tacan Austria GmbH, Salzburg, Austria) and the result is shown in FIG. 3.

CC(C)(O)C1Cc2c(ccc3ccc(=O)oc23)O1 (stereo not drawn) [(2′S)-columbianetin]
expression level of UVB-mediated gelatinase B (MMP-9) gene and protein (MMP-9 (gelatinase B)): reduced by (2′S)-columbianetin in a dose-dependent manner
TIMP-2 expression (TIMP-2): dose-dependently enhanced
protective effect on DNA damage due to UVB exposure [1]: adequate protective effect on DNA damage
expression level of UVB-mediated gelatinase A (MMP-2) gene and protein (MMP-2 (gelatinase A)): reduced by (2′S)-columbianetin in a dose-dependent manner
cell viability (MTT) (HaCaT cells [2]): substantially increased cell viability in a dose-dependent manner
expression level of Bax protein (Bax): the increments were suppressed
expression of phosphorylated JNK protein [3]: effectively decreased the regulations
expression level of phosphorylated p53 (p53): the increments were suppressed
activated nuclear transcription factor c-fos (c-fos): significantly down-regulated
degree of cell injury (LDH release) (HaCaT cells [4]): substantially decreased the degree of cell injury by UVB exposure in a dose-dependent manner
expression of phosphorylated ERK1/2 protein [5]: effectively decreased the regulations
TIMP-1 expression (TIMP-1): dose-dependently enhanced
expression of phosphorylated p38 MAPK protein (p38 MAPK): effectively decreased the regulations
morphological changes in cells due to UV (HaCaT cells [6]): effectively suppressed the morphological changes in cells
DCF fluorescence intensity (intracellular ROS) (intracellular ROS): significantly reduced DCF fluorescence intensity in a dose-dependent manner
